Results as given in ChEMBL document CHEMBL1146392, “Isolation of Diterpenoids of the Cladiellane Class from Gorgonians of the Genus Muricella” (J Nat Prod, 1997).
Converted amounts (≈) assume the structure as drawn.

Columns and labels:
Artemia = assay: Toxicity in brine shrimp; type: organism-based; conditions: in vivo
A549 = assay: Cytotoxicity against human A549 cells; type: functional; conditions: read-out: ED50 (the source's name)
SK-OV-3 = assay: Cytotoxicity against human SKOV3 cells; type: functional; conditions: read-out: ED50 (the source's name)
SK-MEL-2 = assay: Cytotoxicity against human SK-MEL-2 cells; type: functional; conditions: read-out: ED50 (the source's name)
HCT-15 = assay: Cytotoxicity against human HCT15 cells; type: functional; conditions: read-out: ED50 (the source's name)

Row | Compound | LD50 (Artemia) [ppm] | other results
1 | CC1=CC[C@H](C(C)C)[C@@H]2[C@H]1[C@@H]1C/C(C)=C/CC[C@@](C)(O)[C@H]2O1 | 39.2 | –
2 | CC(=O)O[C@]1(C)CC/C=C(\C)C[C@@H]2O[C@H]1[C@H]1[C@@H]2C(C)=CC[C@@H]1C(C)C | 0.3 | EC50 (A549): 12.7 mg/L (≈ 36.7 µM); EC50 (SK-OV-3): 21.3 mg/L (≈ 61.5 µM); EC50 (SK-MEL-2): 11.6 mg/L (≈ 33.5 µM); EC50 (HCT-15): 13.9 mg/L (≈ 40.1 µM)
3 | CC1=C[C@@H](O)[C@H](C(C)(C)O)[C@@H]2[C@H]1[C@@H]1C/C(C)=C/CC[C@@](C)(O)[C@H]2O1 | 48 | –
4 | C=C1C[C@@H]2O[C@@H]([C@H]3[C@@H]2C(C)=C[C@@H](OC(C)=O)[C@@H]3C(C)(C)OC(C)=O)[C@](C)(OC(C)=O)CC[C@@H]1OC(C)=O [ASTROGORGIN] | 1.8 | –
5 | CC(=O)O[C@@H]1C=C(C)[C@H]2[C@@H]([C@H]1C(C)C)[C@@H]1O[C@H]2C/C(C)=C/CC[C@@]1(C)OC(C)=O [CALICOPHIRIN B] | 1 | –
6 | C=C1CC[C@H](C(C)C)[C@@H]2[C@H]1[C@@H]1C/C(C)=C/CC[C@@](C)(OC(C)=O)[C@H]2O1 [CLADIELLIN] | 1.3 | –
7 | CC(=O)O[C@@H]1C=C(C)[C@H]2[C@@H]([C@H]1C(C)(C)OC(C)=O)[C@@H]1O[C@H]2C/C(C)=C/CC[C@@]1(C)OC(C)=O [OPHIRIN] | 8.7 | –
